The numbers were not newly measured in patent US20040229940A1, “Analeptic and antidepressant combinations” (Cephalon Inc, priority 2003, published 2004), which cites them from elsewhere.

Series [1] deals with rats. Particulars: rats (Touret et al., 1995; Edgar and Seidel, 1997).
For series [2], the system named is cats. Particulars: cats (Lin et al., 1992).
The subject of series [3] is canines. Particulars: canines (Shelton et al., 1995).
Series [4] concerns non-human primates. Particulars: non-human primates (Hernant et al, 1991).
Series [5] relates to English bulldog sleep disordered breathing model. Particulars: sleep apnea model, English bulldog (Panckeri et al, 1996).
For series [6], the system named is narcoleptic canine. The note with it: narcolepsy model, narcoleptic canine (Shelton et al, 1995).
Series [7] relates to major depressive disorder. The note with it: at 6 weeks.

For the compound `NC(=O)C[S+]([O-])C(c1ccccc1)c1ccccc1` (stereo not shown) [Modafinil, 2-(benzhydrylsulfinyl) acetamide], the wakefulness entry in series [1], in series [2], in series [3], in series [4], in series [5] and in series [6] was “promotes wakefulness” in each case.

For `CNCCC(Oc1ccc(C(F)(F)F)cc1)c1ccccc1` (stereo not shown) [fluoxetine], the response entry in series [7] is on record as “about 50%”.
